Reference: patent US8685936B2, “Sphingosine kinase inhibitor prodrugs” (Apogee Biotechnology Corporation, priority 2009, dated 2014)

Key:
[1] = system: esterases in mouse plasma; experiment: Conversion of ester prodrugs to Compound 1 by mouse plasma (HPLC); type: in vitro ADME
Method: FIG. 2. Chromatogram of Compound 2. Purified Compound 2 was analyzed by high-performance liquid chromatography using a Waters 2795 system equipped with a photodiode array detector. Separations were conducted using a Nova-Pak C18 column (3.9×150 mm, Waters) eluted isocratically with a mobile phase that consisted of 65% Solvent A (methanol containing 0.1% formic acid) and 35% Solvent B (5% acetonitrile and 95% water containing 0.1% formic acid) at a flow rate of 0.6 mL/min. Compound 2 was detected by its absorbance at the wavelength of 265 nm.
FIG. 3. Conversion of Compound 2 to Compound 1 by plasma enzymes. Purified Compound 2 was incubated with mouse plasma for 5 minutes at room temperature. The sample was then extracted and analyzed by high-performance liquid chromatography as described for FIG. 2.
Prodrugs are compounds that are converted to a biologically active metabolite through the action of enzymes in the body. […] When Compound 2 was incubated with plasma isolated from mouse blood at room temperature for 5 minutes and then analyzed by a similar HPLC process, the peak corresponding to Compound 2 was reduced by more than 95%, and new compounds that eluted with retention times consistent with the monoester of Compound 1, i.e. one of the acetyl esters had been removed, and Compound 1 itself, i.e. both of the acetyl esters had been removed (FIG. 3). […]

[2] = system: mouse JC mammary adenocarcinoma tumors; experiment: Antitumor activity, JC mammary adenocarcinoma tumors growing subcutaneously in Balb/c mice; type: in vivo; conditions: 50 mg/kg of Compound 2 daily for five days per week
Method: FIG. 6. Antitumor activity of Compound 2 alone and in combination with gemcitabine. Murine JC mammary adenocarcinoma cells were injected subcutaneously into Balb/c mice and tumors were allowed to grow to approximately 150 mm^3. The animals were then treated with vehicle alone (▪), 1 mg/kg of gemcitabine weekly (▴), 50 mg/kg of Compound 2 daily for five days per week (▾) or a combination of gemcitabine plus Compound 2 (♦). Tumors were measured twice per week. The values shown represent the average tumor volume+/−the std. dev. for each group (n=8).
The antitumor activity of a representative prodrug SK inhibitor was evaluated using a […] tumor model that uses the mouse JC mammary adenocarcimona cell line growing subcutaneously in immunocompetent Balb/c mice (Lee et al., Oncol Res 14: 49 (2003)). These cells express elevated levels of SK activity relative to non-transformed cells, as well as the multidrug resistance phenotype due to P-glycoprotein activity. Murine JC mammary adenocarcinoma cells were injected subcutaneously into Balb/c mice and tumors were allowed to grow to approximately 100 mm^3. The animals were then treated with vehicle alone (▪), 1 mg/kg of gemcitabine weekly (▴), 50 mg/kg of Compound 2 daily for five days per week (▾) or a combination of gemcitabine plus Compound 2 (♦). Tumors were measured twice per week. […]

[3] = system: TNBS-induced Crohn's Disease model; experiment: TNBS-induced Crohn's Disease model; type: in vivo
Method: FIG. 12. Effects of Compound 1 and Compound 2 on colon histology in the TNBS-induced Crohn's Disease model. On Day 0, female Sprague-Dawley rats were administered TNBS using a stainless steel catheter that was inserted into the colon (8 cm proximal to the anus; 1.0 mL of solution containing 30 mg TNBS and 20% ethanol in PBS). On Days 0-5 animals received daily oral gavage of Vehicle (described in FIG. 7) or 50 mg/kg of Compound 1 or Compound 2 in Vehicle. On Day 6, the colons were removed, weighed and scored for macroscopic damage. The distal 6 cm were transected for subsequent histology and biochemical analyses. In this model, the macroscopic score is an index of histologic damage to the colon which increases as the disease progresses.
FIG. 13. Effects of Compound 1 and Compound 2 on colon weight in the TNBS-induced Crohn's Disease model. Colon weights were measured for the rats described in FIG. 12. Values represent the mean±std. dev. for 5-6 rats per group. In this model, colon weight increases as the disease progresses due to progressive inflammation-mediated edema.
FIG. 14. Effects of Compound 2 on neutrophil infiltration into the colon in the TNBS-induced Crohn's Disease model. Neutrophil infiltration was evaluated in the rats described in FIG. 12. Values represent the mean±std. dev. for 5-6 rats per group. In this model, MPO activity in the colon increases as a result of neutrophil infiltration into the colon as the disease progresses.
The trinitrobenzene sulfonic acid (TNBS) model in rats provides a rapid, reliable and reproducible IBD model that mimics the manifestations of Crohn's Disease. Application of the hapten TNBS to the colon in the presence of ethanol results in transmural infiltrative disease that is limited to the colon and appears to be an IL-12-driven, Th1-mediated immunologic response. […] TNBS induces measurable injury within 2 to 3 days, peak acute inflammation within a week, and gradual progression into chronic inflammation lasting about 2 months.
To test the efficacy of the Compounds, groups of female Sprague-Dawley rats were administered TNBS on Day 0 and treated with vehicle (as the negative control group), Compound 1 or Compound 2 on Days 0-5 by oral gavage at a dose of 50 mg/kg/day. […] Disease progression was evaluated by macroscopic score, colon weight and colon MPO activity at sacrifice. The macroscopic score measures macroscopic damage within the distal 6 cm of the colon using a system that considers the extent of and number of ulcerations.

[4] = TNBS Day 0, 50 mg/kg/day oral gavage Days 0-5, Day 6, female Sprague-Dawley rats

CC(=O)Oc1ccc(CCNC(=O)C23CC4CC(C2)CC(c2ccc(Cl)cc2)(C4)C3)cc1OC(C)=O [Compound 2, Acetic acid 2-acetoxy-5-(2-{[3-(4-chlorophenyl)-adamantane-1-carbonyl]-amino}ethyl)phenyl ester]
reduction of the HPLC peak corresponding to Compound 2 ([1]; incubated with mouse plasma at room temperature for 5 minutes): more than 95% | cleavage of the esters / conversion to Compound 1 by mouse plasma ([1]; mouse plasma, room temperature, 5 minutes, HPLC): rapidly convert Compound 2 into Compound 1 | tumor growth (tumor volume) [2]: significant reduction of tumor growth | Compound-related toxicities ([3]; 50 mg/kg/day oral gavage Days 0-5, rats sacrificed on Day 6): no Compound-related toxicities apparent | Macroscopic Score of colon damage [3, 4]: reduced the Macroscopic Score | colon MPO activity (granulocyte infiltration) [3, 4]: reduced MPO activity in the colon | colon weight [3, 4]: reduced the elevation of the colon weight
